{
  "source": "paper PMC11121450",
  "about": "“Evaluation of the Inhibitory Potential of Synthetic Peptides Homologous to CDR3 Regions of a Monoclonal Antibody against Bothropic Venom Serine Proteases” (International Journal of Molecular Sciences, 2024)",
  "key": {"human thrombin": {"molecular_target": "human thrombin (Homo sapiens, UniProt P00734)", "assay": "Inhibition of human thrombin, Abz-FRSSRQ-EDDnp substrate", "type": "biochemical", "details": "for Ki: Dixon plot, three peptide concentrations including zero, thrombin 300 ng/µL, Abz-FRSSRQ-EDDnp substrate, read-out: inhibition constant (Ki) against human thrombin; for reduction of hydrolytic activity of thrombin: peptide 100 µM, 300 ng human thrombin, Abz-FRSSRQ-EDDnp 5 µM, 100 mM Tris-HCl, 20 mM NaCl, pH 7.4, 37 °C, quadruplicate", "experimental": "Figure 8 Inhibitory activity assay against human thrombin (panel A), trypsin (panel B), and elastase-1 (panel C). The experiments were performed in a fluorimeter (Hidex 425-301, Turku, Finland), with readings adjusted for excitation and emission at 320 and 420 nm using Abz-FRSSRQ-EDDnp as a substrate. Assays were performed in quadruplicate, in Tris-HCl 50 mM, pH 8.0 (for trypsin and elastase-1 assays), and 100 mM Tris-HCl, 20 mM NaCl, pH 7.4, for human thrombin at 37 °C, using 1.7 ng/µL of trypsin, 300 ng/µL of human thrombin, and 300 ng of elastase-1. […] Panel (B): For these assays, the peptides were used at 100 µM, and CDR3 A and CDR3 E inhibited the substrate hydrolysis by thrombin by 34% and 100%, respectively. […] (****) p < 0.0001.\nWith the obtained velocities, curves were plotted on the Dixon plot (1/V versus [I]) (Figure 9).\nLines indicate a competitive mechanism of action. Kis of 61.77 µM (CDR3 A) and 55.75 (CDR3 E) were obtained. For the construction of the graph, the software GraphPad Prism 8 was used.\n(§1) To verify the selective inhibition of the SVTLE by the peptides, it was necessary to perform experiments with other serine proteases of physiological relevance. For this, the possible inhibition of elastase-1 (EC 3.4.21.36), trypsin (EC 3.4.21.4), and human thrombin (EC 3.4.21.5) was analyzed. The evaluation of enzyme activities was performed as described above. The activities were assessed in 50 mM Tris-HCl, pH 8, for trypsin; Tris-HCl 50 mM, NaCl 50 mM, pH 8, for elastase-1; and 100 mM Tris-HCl, 20 mM NaCl, pH 7.4, for human thrombin (final volume of 100 µL), using 96-well plates (Corning) and the substrate Abz-FRSSRQ-EDDnp (5 µM). All reactions occurred at 37 °C using 1.7 ng of trypsin, 300 ng of human thrombin, and 300 ng of elastase-1. Assays were performed on a Hidex fluorimeter (425-301 Hidex, Turku, Finland), with the excitation and emission of fluorescence fixed at 320 and 420 nm, respectively. The trypsin and elastase-1 assays were performed using 20 µM of each peptide, and the human thrombin assays were performed using 100 µM. The readings occurred over 15 min at 1 min intervals. The experiments were performed in quadruplicate."}, "[1]": {"tested_on": "B. jararaca and B. atrox venoms", "type": "in vitro ADME, Bothrops jararaca; Bothrops atrox", "details": "incubation with B. jararaca and B. atrox venoms (0.1 µg of both venoms per table footnote; 90 ng and 20 ng per method), 50 µM peptide, 4 h, 37 °C, 100 mM Tris HCl, 20 mM NaCl, pH 7.4; RP-HPLC C-18, UV 214 nm; relative to β-chain of insulin", "experimental": "To verify the stability of the synthetic peptides, they were incubated with both venoms, and tests were performed using reverse-phase liquid chromatography on a C-18 column. […] As a positive control, the β-chain of insulin was used, which is known to be a substrate for the SVSPs and SVMPs of bothropic venoms.\nWith the aim of verifying the possible hydrolysis of peptides by the studied venoms, the samples were prepared in 100 mM Tris-HCl, 20 mM NaCl, pH 7.4, final volume 100 µL, using 50 µM of each synthetic peptide, incubating them separately with the venoms of B. jararaca (90 ng) and B. atrox (20 ng) for 4 h at 37 °C, the same concentrations used in the enzymatic assays. A solution containing the β-chain of insulin (50 µM) was used as a positive control since it is a described substrate for SVSP from both venoms. The conditions for the HPLC (Shimadzu Prominence) analysis used 0.1% trifluoroacetic acid (TFA) in water (solvent A), and acetonitrile (ACN) and solvent A (9:1) as solvent B. The analyses occurred at a flow rate of 1 mL/min using a C-18 column (Shim-pack VP-ODS4.6 x 150 mm) and a gradient of 20–60% solvent B for 20 min. In all cases, 50 µL of each sample was injected and the absorbance was monitored at 214 nm."}, "[2]": {"molecular_target": "elastase-1 (EC 3.4.21.36) (Sus scrofa, UniProt P00772)", "sequence (P00772 27-266)": "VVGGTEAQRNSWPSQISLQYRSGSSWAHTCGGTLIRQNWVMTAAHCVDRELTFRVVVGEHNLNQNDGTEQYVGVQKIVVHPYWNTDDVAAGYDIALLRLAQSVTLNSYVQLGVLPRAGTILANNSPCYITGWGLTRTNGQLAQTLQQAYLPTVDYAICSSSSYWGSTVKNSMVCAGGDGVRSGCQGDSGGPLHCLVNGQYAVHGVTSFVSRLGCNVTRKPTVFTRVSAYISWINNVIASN", "assay": "Inhibition of elastase-1, Abz-FRSSRQ-EDDnp substrate", "type": "biochemical", "details": "peptide 20 µM, 300 ng elastase-1, Abz-FRSSRQ-EDDnp 5 µM, Tris-HCl 50 mM, pH 8, 37 °C, quadruplicate", "experimental": "Figure 8 Inhibitory activity assay against human thrombin (panel A), trypsin (panel B), and elastase-1 (panel C). The experiments were performed in a fluorimeter (Hidex 425-301, Turku, Finland), with readings adjusted for excitation and emission at 320 and 420 nm using Abz-FRSSRQ-EDDnp as a substrate. Assays were performed in quadruplicate, in Tris-HCl 50 mM, pH 8.0 (for trypsin and elastase-1 assays), and 100 mM Tris-HCl, 20 mM NaCl, pH 7.4, for human thrombin at 37 °C, using 1.7 ng/µL of trypsin, 300 ng/µL of human thrombin, and 300 ng of elastase-1. […]\nas §1, with “The evaluation of enzyme activities was performed as described above.” left out, “All reactions occurred at 37 °C using 1.7 ng of trypsin, 300 ng of human thrombin, and 300 ng of elastase-1.” left out, “The trypsin and elastase-1 assays were performed using 20 µM of each peptide, and the human thrombin assays were performed using 100 µM.” left out, “The experiments were performed in quadruplicate.” left out"}},
  "note": "Residues, ends and D or L forms follow the SMILES beside them. No end group written: not given here.",
  "data": [
    {"compound": "CC(C)C[C@H](NC(=O)[C@H](CC(N)=O)NC(=O)[C@H](Cc1ccc(O)cc1)NC(=O)[C@H](CO)NC(=O)[C@H](CCC(N)=O)NC(=O)[C@H](CCCCN)NC(=O)[C@H](CS)NC(=O)CNC(=O)CNC(=O)[C@@H]1CCCN1C(=O)CNC(=O)CNC(=O)[C@H](Cc1ccc(O)cc1)NC(=O)[C@H](CC(=O)O)NC(=O)[C@H](Cc1ccccc1)NC(=O)[C@H](Cc1ccc(O)cc1)NC(=O)[C@H](Cc1ccc(O)cc1)NC(=O)CNC(=O)[C@H](CC(=O)O)NC(=O)[C@H](Cc1c[nH]c2ccccc12)NC(=O)[C@H](CC(=O)O)NC(=O)[C@H](CCCNC(=N)N)NC(=O)[C@H](CCCCN)NC(=O)[C@@H](N)CS)C(=O)N[C@@H](CCCNC(=N)N)C(=O)N[C@H](C(=O)O)[C@@H](C)O", "note": "[CDR3 E] (H-CKRDWDGYYFDYGGPGGCKQSYNLRT-OH)", "values": [
      {"measurement": "Ki", "setting": "human thrombin", "value": 55.7, "unit": "µM"},
      {"measurement": "reduction of hydrolytic activity of thrombin", "setting": "human thrombin", "value": 100, "unit": "%"},
      {"measurement": "Relative Hydrolysis Ratio (%)", "setting": "[1]", "value": "<0.01", "unit": "%"}
    ]},
    {"compound": "CC(C)C[C@H](NC(=O)[C@H](CC(N)=O)NC(=O)[C@H](Cc1ccc(O)cc1)NC(=O)[C@H](CO)NC(=O)[C@H](CCC(N)=O)NC(=O)[C@H](CCCCN)NC(=O)[C@H](CS)NC(=O)CNC(=O)[C@@H]1CCCN1C(=O)CNC(=O)CNC(=O)[C@H](Cc1ccc(O)cc1)NC(=O)[C@H](CC(=O)O)NC(=O)[C@H](Cc1ccccc1)NC(=O)[C@H](Cc1ccc(O)cc1)NC(=O)[C@H](Cc1ccc(O)cc1)NC(=O)CNC(=O)[C@H](CC(=O)O)NC(=O)[C@H](Cc1c[nH]c2ccccc12)NC(=O)[C@H](CC(=O)O)NC(=O)[C@H](CCCNC(=N)N)NC(=O)[C@H](CCCCN)NC(=O)[C@@H](N)CS)C(=O)N[C@@H](CCCNC(=N)N)C(=O)N[C@H](C(=O)O)[C@@H](C)O", "note": "[CDR3 D] (H-CKRDWDGYYFDYGGPGCKQSYNLRT-OH)", "values": [
      {"measurement": "Relative Hydrolysis Ratio (%)", "setting": "[1]", "value": "<0.01", "unit": "%"}
    ]},
    {"compound": "CKQSYNLRT [CDR3 C]", "values": [
      {"measurement": "reduction of substrate hydrolysis by elastase-1", "setting": "[2]", "value": 22, "unit": "%"},
      {"measurement": "Relative Hydrolysis Ratio (%)", "setting": "[1]", "value": "<0.01", "unit": "%"}
    ]},
    {"compound": "CKRDWDGYYFDY [CDR3 A]", "values": [
      {"measurement": "Ki", "setting": "human thrombin", "value": 61.8, "unit": "µM"},
      {"measurement": "reduction of hydrolytic activity of thrombin", "setting": "human thrombin", "value": 34, "unit": "%"},
      {"measurement": "Relative Hydrolysis Ratio (%)", "setting": "[1]", "value": "<0.01", "unit": "%"}
    ]}
  ]
}
